How the values were obtained:
human FP receptor = human FP receptor (Homo sapiens, UniProt P43088); assay: Radioligand binding competition vs 3H-17-phenyl PGF2α, recombinant human FP receptor; parameters: expressed in transfected cells; settings: for % specific binding mean χ ± SEM: vs 5nM 3H-17-phenyl PGF2α, n = 3
Protocol: Plasma membrane preparations of HEK 293 cells stably transfected with the human or feline FP receptor were obtained as follows. Cells washed with TME buffer were scraped from the bottom of the flasks and homogenized for 30 sec using a Brinkman PT 10/35 polytron. TME buffer was added as necessary to achieve a 40 ml volume in the centrifuge tubes. TME is comprised of 100 mM TRIS base, 20 mM Mg Cl2, 2 m EDTA; physiological pH is achieved by adding 10 N HCl. The cell homogenate was centrifuged at 19,000 rpm for 20 min at 4-6° C. using a Beckman Ti-60 rotor. The pellet was then resuspended in TME buffer to provide a final protein concentration of 1 mg/ml, as determined by Biorad assay. Radioligand binding assays were performed in a 200 μl volume.
Incubations were for 60 min at 25° C. and were terminated by the addition of 4 ml of ice-cold 50 mM TRIS-HCl followed by rapid filtration through Whatman GF/B filters and three additional 4 ml washes in a cell harvester (Brandel).

[1] = system: dog ocular surface hyperemia; assay: Dog ocular surface hyperemia; format: in vivo; parameters: key: <1 trace 0.5; 1 mild 1; moderate 2; severe 3; settings: throughout the 24 hr experimental period, trace for vehicle
Protocol: Ocular surface hyperemia was visually assessed and scored according to a system typically used clinically.
Ocular surface hyperemia was evaluated at the same time points as intraocular pressure measurement. It should be noted that untreated dog eyes frequently have a pink/red tone. Thus, values of trace or even mild are not necessarily out of the normal range.

[2] = biological target: recombinant feline FP receptor (Felis catus, UniProt A0ABI7XJ69); assay: Ca2+ signal in HEK-293 cells stably transfected with recombinant feline FP receptor; format: cell-based, cat; settings: for Δ[Ca^2+]i mean χ ± SEM: n = 3
Protocol: Human CRL 1497 cells were plated in culture flasks and fed Dulbecco's modified Eagle's medium (DMEM) containing 10% fetal calf serum, 2 mM 1-glutamine, and 0.05 mg/ml gentacin (all purchased from Gibco, Grand Island, N.Y.). Cell cultures were maintained in a humidified atmosphere of 95% air, 5% CO2 and grown to confluency. Cells were removed from the culture flasks by approximately 1 min treatment with trypsin 0.05%/0.53 mM EDTA in Hanks Balanced Salt Solution (HBSS, Gibco, Grand Island, N.Y.) at 37° C. Proteolytic activity was arrested by adding 5 ml of 10% fetal bovine serum in DMEM. The cells were consecutively washed in Hank's BSS and medium containing 140 mM NaCl, […], 1 mM MgCl2, 1.5 mM CaCl2, 10 mM HEPES: TRIS, 5 mM glucose, 5 mM Na pyruvate, 0.1% bovine serum albumin at pH 7.4: Centrifugation for the washes was performed for 15 minutes at 200 g at room temperature. Cells were counted, resuspended in the above medium and incubated with 2×10^−6 M Fura 2/acetoxymethyl ester in a shaking water bath for 30 minutes at 37° C. The cells were subsequently washed in medium as above and resuspended at a concentration of 2×10^6 cells ml^−1. Aliquots of 0.5 ml cell suspension were then added to autocap microtubes to provide 10^6 cells per experimental determination of intracellular free Ca^2+ concentration ([Ca^2+]i).
Fluorescence was measured in a Perkin-Elmer LS-5 fluorescence spectrophotometer at excitation and emission wavelengths of 340 and 492 nm, respectively, with both slits at 10 nm. For each experimental determination 10^6 cells were washed (200×g for 5 min) and suspended in a 2 ml cuvette with buffer containing 120 mM NaCl, 6 mM KCl, 1 mM MgSO4, 1.5 mM CaCl2, 20 mM HEPES, 1 mg ml^−1 glucose and 1 mg ml^−1 Na pyruvate. Stirring was achieved by an overhead-mounted, paddle stirrer with the temperature maintained at 37° C. The cells were lysed with digitonin (10 μl of 100 mg ml^−1 DMSO) to obtain fmax. EGTA (100 mM) and sufficient 10N NaOH to adjust the pH to 8.5 were then successively added to obtain fmin.
HEK-293 cells were grown in DMEM with 10% fetal bovine serum (FBS), 250 μg ml^−1 G418 (Life Technologies) and 200 μg ml^−1 gentamicin or penicillin/streptomycin. […] For transfection, the cells were grown to 50-60% confluency on 10 cm plates. The plasmid pCEP4 incorporating cDNA inserts for the human FP receptor (20 μg) was added to 500 μl of 250 mM CaCl2. HEPES buffered saline×2 (2×HBSS, 280 mM NaCl, 20 mM HEPES acid, 1.5 mM Na2 HPO4, pH 7.05-7.12) was then added dropwise to a […], with continuous vortexing at room temperature. After 30 min, 9 ml DMEM were added to the mixture. The DNA/DMEM/calcium phosphate mixture was then added to the cells, which had been previously rinsed with 10 ml phosphate buffered saline (PBS). The cells were then incubated for 5 h. at 37° C. in humidified 95% air/5% CO2. The calcium phosphate solution was then removed and the cells were treated with 10% glycerol in DMEM for 2 min. The glycerol solution was then replaced by DMEM with 10% fetal bovine serum (FBS). The cells were incubated overnight and the medium was replaced by DMEM/10% FBS containing 250 μg ml^−1 G418 and penicillin/streptomycin. The following day hygromycin B was added to a final concentration of 200 μg ml^−1.
Ten days after transfection, hygromycin B resistant clones were individually selected and transferred to a separate well on a 24 well plate. […]

Chain of human FP receptor (P43088 whole entry): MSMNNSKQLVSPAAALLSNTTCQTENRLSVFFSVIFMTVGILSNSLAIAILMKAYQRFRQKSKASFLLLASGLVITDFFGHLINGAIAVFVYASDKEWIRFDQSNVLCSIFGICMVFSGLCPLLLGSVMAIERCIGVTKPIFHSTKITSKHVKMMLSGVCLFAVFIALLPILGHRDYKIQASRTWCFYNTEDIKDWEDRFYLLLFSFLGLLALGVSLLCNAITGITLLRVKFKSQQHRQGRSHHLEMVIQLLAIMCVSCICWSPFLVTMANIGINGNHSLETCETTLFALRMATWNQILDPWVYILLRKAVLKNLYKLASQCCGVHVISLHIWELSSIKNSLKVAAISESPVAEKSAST
Chain of recombinant feline FP receptor (A0ABI7XJ69 entry or part of it): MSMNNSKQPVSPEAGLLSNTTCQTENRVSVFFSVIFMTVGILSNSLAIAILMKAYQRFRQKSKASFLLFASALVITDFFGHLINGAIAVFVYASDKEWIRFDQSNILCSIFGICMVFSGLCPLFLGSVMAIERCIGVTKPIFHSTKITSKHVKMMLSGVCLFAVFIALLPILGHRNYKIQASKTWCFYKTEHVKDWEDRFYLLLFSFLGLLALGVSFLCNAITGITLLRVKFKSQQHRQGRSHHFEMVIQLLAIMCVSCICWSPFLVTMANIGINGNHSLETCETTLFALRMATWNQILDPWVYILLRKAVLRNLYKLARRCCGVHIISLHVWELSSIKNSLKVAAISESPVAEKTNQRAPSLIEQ

SMILES: CCCCC[C@H](O)/C=C/[C@@H]1[C@@H](C/C=C\CCCC(=O)NCCO)[C@@H](O)C[C@H]1O [PGF2α 1-ethanolamide, (5Z,8α,9α,11α,13E,15S)-9,11,15-trihydroxy-N-(2-hydroxyethyL)prosta-5,13-dien-1-amide]
- % specific binding mean χ ± SEM (human FP receptor; 10^−5 M): 19.7 ± 1.2%
- % specific binding mean χ ± SEM (human FP receptor; 10^−6 M): 63.7 ± 2.7%
- % specific binding mean χ ± SEM (human FP receptor; 10^−7 M): 95.9 ± 1.5%
- % specific binding mean χ ± SEM (human FP receptor; 10^−8 M): 103.3 ± 0.3%
- % specific binding mean χ ± SEM (human FP receptor; 10^−9 M): 94.7 ± 1.4%
- IC50 (human FP receptor; read-out: I.C.50, radioligand binding): 2020 nM
- ocular surface hyperemia [1]: mild
- Δ[Ca^2+]i mean χ ± SEM ([2]; 10^−9 M): 22.2 ± 6.4
- Δ[Ca^2+]i mean χ ± SEM ([2]; 10^−10 M): 6.5 ± 5.0
- difference in potency vs PGF2α ([2]; HEK-293 cells, recombinant feline FP receptor, Ca2+ signal): approximately 100 fold
- EC50 ([2]; HEK-293 cells, recombinant feline FP receptor, read-out: E.C.50, Ca2+ signal): 1460 nM
